Results reported in article PMC8317940, “Strained contacts with the cell membrane may influence ligand affinity to G protein coupled receptors: a case of free fatty acid receptor 1 agonists” (Journal of Enzyme Inhibition and Medicinal Chemistry, 2021).

Molecular target: T1, free fatty acid receptor 1 (FFA1, GPR40) (Homo sapiens, UniProt O14842)
T1 construct: gene FFAR1
Assay: calcium flux (FLIPR) agonist assay in CHO cells stably expressing human FFA1
Assay type: cell-based

T1 sequence (O14842 whole entry): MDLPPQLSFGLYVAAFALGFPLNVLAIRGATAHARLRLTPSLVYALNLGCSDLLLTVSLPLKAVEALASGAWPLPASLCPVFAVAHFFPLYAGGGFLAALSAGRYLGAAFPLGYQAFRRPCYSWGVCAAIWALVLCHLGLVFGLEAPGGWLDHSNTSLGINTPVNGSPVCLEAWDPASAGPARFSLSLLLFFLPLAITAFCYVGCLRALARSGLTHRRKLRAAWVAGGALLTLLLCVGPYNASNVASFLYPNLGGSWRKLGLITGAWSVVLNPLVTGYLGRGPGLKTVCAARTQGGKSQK

SMILES | EC50 [nM]
O=C(O)CCc1nnc(C(=O)Nc2cccc(-c3ccc(Cl)cc3)c2)s1 [2a, 3-(5-{[(4′-Chlorobiphenyl-3-yl)amino]carbonyl}-1,3,4-thiadiazol-2-yl)propanoic acid] | 1320
O=C(O)CCc1nnc(C(=O)Nc2cccc(-c3ccc(OC(F)(F)F)cc3)c2)s1 [2c, 3-[5-({[4′-(Trifluoromethoxy)biphenyl-3-yl]amino}carbonyl)-1,3,4-thiadiazol-2-yl]propanoic acid] | 1250
O=C(O)CCc1nnc(C(=O)Nc2ccc(-c3cccc(C(F)(F)F)c3)cc2)s1 [2e, 3-[5-({[3′-(Trifluoromethyl)biphenyl-4-yl]amino}carbonyl)-1,3,4-thiadiazol-2-yl]propanoic acid] | 1860
COc1cccc(-c2ccc(NC(=O)c3nnc(CCC(=O)O)s3)cc2)c1 [2g, 3-(5-{[(3′-Methoxybiphenyl-4-yl)amino]carbonyl}-1,3,4-thiadiazol-2-yl)propanoic acid] | 1350
